Results: patent US20100105610A1, “Methods of Inhibiting Tumor Cell Aggressiveness Using the Microenvironment of Human Embryonic Stem Cells” (CHILDREN'S MEMORIAL HOSPITAL, priority 2006, published 2010)

Legend:
Format in all cases: cell-based, human
VE-Cadherin, Keratin 18 = assay: Western blot of vasculogenic mimicry plasticity biomarkers in C8161 cells; details: C8161 cells on 3-D collagen I matrices for 6 days
Method: (A) Western blot analyses of Nodal, phosphorylated SMAD-2, total SMAD 2/3, and Actin in C8161 cells 48 hours after administration of either vehicle or an ALK 4/5/7 inhibitor (SB431542, 1 μM, 10 μM). […] (B) Western blot analyses of Nodal, Tyrosinase and Actin in C8161 cells 24 hours after the administration of either vehicle or different concentrations of ALK inhibitor while (C) is a Western analyses for VE-Cadherin, Keratin 18 and Actin in C8161 cells cultured on 3-D collagen I matrices for 6 days in the presence of vehicle or different concentrations of ALK inhibitor.

Notch 1, 2 and 4 = assay: Notch expression, Western blot in C8161 cells
Excerpt: Western blot analysis of C8161 cells 72 hrs following the administration of siRNA. […] Western blot analysis of Notch 1, 2 and 4 in C8161 cells treated with the Nodal inhibitor SB431542.

C8161 cells [1] = assay: Vasculogenic mimicry of C8161 cells; details: C8161 cells treated with ALK 4/5/7 inhibitor
C8161 cells [2] = assay: Membrane Invasion Culture System (MICS) invasion assay; details: C8161 cells treated with ALK 4/5/7 inhibitor
Excerpt: Bars represent the mean, normalized, invasion indices±standard deviations.
The aggressiveness of tumor cells is correlated with their ability to invade through the extracellular matrix; thus, the effect of hESC microenvironments on melanoma cell invasion was investigated.
The Membrane Invasion Culture System (MICS) chamber is used to evaluate the degree of tumor cell invasion through matrices in vitro (both stimulated and unstimulated) as described previously.

Nodal = Nodal protein expression, Western blot
Method: (§1) Protein lysates were prepared and quantified as previously described in Hess et al., 2001, Cancer Res. 61:3250-3255. Equal amounts of protein were separated by SDS-polyacrylamide gel electrophoresis under reducing conditions, and the resolved proteins were transferred onto Immobilon-P membranes (Millipore Corp., Bedford, Mass.). Membranes were blocked in 1% TBS, 0.1% Tween 20 (TBS-T) and 5% dry milk powder or 3% gelatin (for Nodal Westerns). Blots were incubated with anti-Nodal or anti-Lefty antibodies (Polyclonal rabbit anti-Nodal (H-110) 1:500 Santa Cruz Biotechnology, Santa Cruz, Calif.; Polyclonal goat anti-Lefty 1:500 R&D Systems, Minneapolis, Minn.), washed in TBS-T, and incubated with the appropriate horseradish peroxidase-labeled secondary antibody. Secondary antibodies were detected by enhanced chemiluminescence (Super Signal; Pierce, Rockford, Ill.) and exposure to autoradiography film (Molecular Technologies, St Louis, Mo.). Nodal protein was detected as two major bands at ˜48 and ˜35 kDa representing precursor and pro-Nodal respectively. Nodal often appeared as multiple bands, likely due to degradation of protein modifications. All experiments were done at least three times.
Conditioned matrices were prepared using hESCs, melanocytes, myoepithelial cells, amniotic fluid derived stem cells, or trophoblast cells on growth factor-reduced Matrigel (14 mg/mL; BD Biosciences) as previously described. Postovit et al., 2006, Stem Cells 24: 501-505. In all cases, cells were 80-100% confluent during the conditioning of the matrix. Alternatively, hESC-derived Lefty protein was seeded into Matrigel prior to polymerization. Human melanoma (C8161) or breast carcinoma (MDA-MB-231) cells, 2.5×10^5 cells/6-well dish, were subsequently exposed to this preconditioned matrix for 3 to 4 days.
as §1, with “primary antibody (Table 2),” for “anti-Nodal or anti-Lefty antibodies (Polyclonal rabbit anti-Nodal (H-110) 1:500 Santa Cruz Biotechnology, Santa Cruz, Calif.; Polyclonal goat anti-Lefty 1:500 R&D Systems, Minneapolis, Minn.),”, “TBS-T or TBS-T containing 0.5M NaCl for the Nodal Westerns,” for “TBS-T,”, “Nodal often appeared as multiple bands, likely due to degradation of protein modifications. All experiments were done at least three times.” left out

Lefty = Lefty knockdown in hESCs with FITC-tagged Morpholinos (microscopy, Western blot)
Excerpt: Cancer cells were also exposed to Matrigel conditioned by hESCs in which Lefty protein expression was knocked down with FITC-tagged Morpholino oligonucleotides specific for Lefty-A and Lefty-B (MO^LEFTY). […] The expression of Oct-3/4 and Nanog, representative of hESC pluripotency, was not affected during this time, and the morphology of the hESC colonies was not altered.
Nodal, and Lefty protein expression were inhibited using anti-sense Morpholino oligonucleotides (Gene Tools Inc., Philomath, Oreg.). The Morpholino sequences were selected based on manufacturer's recommendations (21-25 mer antisense). Fluoroscein (FITC)-conjugated control (5′-[…]-3′) [SEQ ID NO: 19], Nodal (5′-[…]-3′) [SEQ ID NO: 20], Lefty-A (5′-[…]-3′) [SEQ ID NO: 21], and Lefty-B (5′[…]-3′) [SEQ ID NO: 22]. Morpholinos (20 μM) were delivered using the scrape method. Topczewska et al., 2006. Cancer cells were sorted for FITC and were recovered for 1 day prior to experimentation.

H9 hESCs = assay: hESC pluripotency (Oct-3/4 and Nanog expression, colony morphology); details: Oct-3/4, Nanog
Excerpt: (A) An abundance of the Nodal inhibitor Lefty within the hESC conditioned matrices (CMTX). Lefty protein is absent in the C8161 cells within its own conditioned matrix (C8161+CMTX). (B) Immunofluorescence localization of FITC-conjugated anti Lefty Morpholinos (MO^LEFTY) in H9 hESC colonies on Matrigel. (C) Western blot analysis of Lefty protein in H9 hESCs treated with either vehicle (Control), MO^Control (MO Control), or MO^Lefty (MO Lefty). Actin is used as a loading control. (D) Real Time RT-PCR analysis of Oct-3/4 and Nanog expression in H9 hESCs treated with either vehicle (H9), MO^CONTROL (MO Control), or MO^LEFTY (MO Lefty). Gene levels were normalized using 18s and bars represent mean gene expression normalized to H9. (E) Real Time RT-PCR analysis of Nodal mRNA expression in C8161 cells cultured for 3 days on control (unconditioned) Matrigel, Matrigel conditioned by hESCs (H9 CMTX) or Matrigel conditioned by hESCs in which Lefty protein expression was […] with Lefty-specific Morpholinos (H9 CMTX MO Lefty). (F) Western blot analysis of Nodal protein in human metastatic melanoma (C8161) and breast carcinoma (MDA-MB-231) cells exposed for 3 days to either control (unconditioned) Matrigel or to Matrigel seeded with Lefty protein purified from hESCs (H9-derived Lefty). […]

MDA-MB-231 cells = assay: Anchorage independent growth / soft agar colony formation, MDA-MB-231; details: 100 ng/mL
Method: (§2) Clonogenicity of cells are assessed as previously described. Hamburger, A. W., and Salmon, S. E., 1977, Science 197:461-463. Each parameter is tested in triplicate for clone formation in soft agar. Briefly, […] are plated in 60 mm Petri dishes in complete medium placed over the soft agar. On specific days after the cells are plated, phase contrast images of the colonies are taken using a Zeiss Axiovert 25 with an Hitachi HCV-20 color camera.
(§3) Anchorage independent growth assays were conducted as previously described. Topczewska et al., 2006, Nat. Med. 12: 925-932.

C81-61 cells = assay: Soft agar colony formation, C81-61; details: C81-61 cell line
Method: (§4) An in vitro colony forming assay was used to analyze colony-forming ability of poorly aggressive C81-61 cells, aggressive C8161 cells, C8161 cells treated with MONodal and C8161 cells treated with MONodal and rescued with recombinant Nodal (100 ng/mL). The assay was conducted using 50,000 cells suspended in 0.35% agarose in RPMI containing 10% serum, which were plated into 6-well dishes on 0.5% agar in the same medium. Colonies grew, and pictures were taken at day 7. After 2 weeks, colonies were stained with Crystal Violet and counted.
as §2

C8161 cells [3] = assay: Anchorage independent growth / soft agar colony formation, C8161; details: 100 ng/mL
Method: as §4, §2, §3

## NC(=O)c1ccc(-c2nc(-c3ccc4c(c3)OCO4)c(-c3ccccn3)[nH]2)cc1 [SB431542]
VE-Cadherin, Keratin 18
  expression of vasculogenic mimicry plasticity biomarkers: reduction
Notch 1, 2 and 4
  Notch expression: relatively unaffected
C8161 cells [1]
  vasculogenic mimicry: abrogation
C8161 cells [2]
  invasive ability: reduction
Nodal; C8161 cells, 1 μM, 10 μM, 48 hours
  Nodal expression: down-regulation

## MO^LEFTY: FITC-tagged Morpholino oligonucleotides specific for Lefty-A and Lefty-B (SEQ ID NO: 21, 22) (chain 1 GCCACATGGTGCTGCCCTGGG; chain 2 CTGCATGGTGCTGCCCTGGAGGA; all phosphorodiamidate morpholino (PMO); FITC (fluorescein) conjugated, position not given here)
Lefty; H9 hESCs, Western blot, for up to 3 days
  Lefty protein expression in hESCs: efficiently knocked down
Lefty; microscopy of treated hESC colonies
  hESC colonies in which the fluorescently-tagged Morpholinos could be detected: over 75%
H9 hESCs
  stem cell differentiation: did not induce stem cell differentiation

B1: recombinant Nodal: recombinant Nodal (R&D Systems) (protein, UniProt Q96S42 238-347, looked up)
Nodal homolog: HHLPDRSQLCRKVKFQVDFNLIGWGSWIIYPKQYNAYRCEGECPNPVGEEFHPTNHAYIQSLLKRYQPHRVPSTCCAPVKTKPLSMLYVDNGRVLLDHHKDMIVEECGCL
MDA-MB-231 cells; MDA-MB-231 cells exposed to H9 CMTX
  rescue of inhibition of in vitro clonogenicity: partially rescued
MDA-MB-231 cells; MDA-MB-231 cells exposed to H9 Lefty-containing matrix
  rescue of inhibition of in vitro clonogenicity: completely rescued
C81-61 cells
  colony formation: did not induce colony formation
C8161 cells [3]; C8161 cells exposed to H9 CMTX
  rescue of inhibition of in vitro clonogenicity: partially rescued
C8161 cells [3]; C8161 cells exposed to H9 Lefty-containing matrix
  rescue of inhibition of in vitro clonogenicity: completely rescued
C8161 cells [3]; C8161 cells treated with MONodal
  rescue of reduced colony formation: rescued

B2: rLefty: recombinant Lefty-B (R&D Systems) (protein, UniProt O75610 77-366, looked up)
Left-right determination …: RFSQSFREVAGRFLALEASTHLLVFGMEQRLPPNSELVQAVLRLFQEPVPKAALHRHGRLSPRSARARVTVEWLRVRDDGSNRTSLIDSRLVSVHESGWKAFDVTEAVNFWQQLSRPRQPLLLQVSVQREHLGPLASGAHKLVRFASQGAPAGLGEPQLELHTLDLGDYGAQGDCDPEAPMTEGTRCCRQEMYIDLQGMKWAENWVLEPPGFLAYECVGTCRQPPEALAFKWPFLGPRQCIASETDSLPMIVSIKEGGRTRPQVVSLPNMRVQKCSCASDGALVPRRLQP
Nodal; C8161 cells
  dose needed to inhibit Nodal protein relative to hESC counterpart: higher doses
Nodal; C8161 cells exposed 48 hrs to 0-1000 ng/mL
  Nodal expression: reduces
